Where two headings read alike, the source gives them in different places.
Legend:
VIM-2 = molecular target: T1, VIM-2 (Escherichia coli, UniProt Q5U7L7); assay: β-lactamase enzyme inhibition assay, VIM-2 (nitrocefin substrate); format: biochemical
T1 construct: made in house; host or cells: E. coli BL21(DE3)
Method in brief: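 Nitrocefin hydrolysis, read at 486 nm over 10 min, served as the measure of VIM-2 activity. The enzyme had been incubated with compound for 15 min at 37 °C before 100 μM substrate was added, and IC50 values were fitted from percent inhibition of the initial rate.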

[1] = test system: P. aeruginosa expressing the Class B carbapenemase VIM-2; assay: Broth microdilution MIC assay with meropenem, P. aeruginosa VIM-2; format: cell-based; conditions: Fixed Mero (meropenem) 4 μg/mL; P. aerug. 2775 VIM-2
Method in brief: (§1)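 Visual MIC readout of the test compound after 16-20 hours at 37° C, measured in the presence of a constant 4 μg/ml β-lactam. Compound concentrations spanned 16 to 0.125 μg/mL in 2-fold steps in cation-adjusted Mueller Hinton broth.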

[2] = test system: K. pneumoniae producing the Class D carbapenemase OXA-48; assay: Broth microdilution MIC assay with meropenem, K. pneumoniae OXA-48; format: cell-based; conditions: Fixed Mero (meropenem) 4 μg/mL; K. p. 11978 OXA-48
Method in brief: as §1

[3] = test system: E. coli expressing the Class A Extended Spectrum Beta-Lactamase (ESBL) CTX-M-15; assay: Broth microdilution MIC assay with ceftazidime, E. coli CTX-M-15; format: cell-based; conditions: Fixed CAZ (ceftazidime) 4 μg/mL; E. coli ESBL4 CTX-M-15
Method in brief: as §1

[4] = test system: K. pneumoniae expressing the Class A carbapenemase KPC-2; assay: Broth microdilution MIC assay with meropenem, K. pneumoniae KPC-2; format: cell-based; conditions: Fixed Mero (meropenem) 4 μg/mL; K. p. 156319 KPC-3
Method in brief: as §1

[5] = test system: K. pneumoniae expressing the class A carbapenemase KPC-2 and the class B carbapenemase VIM-4; assay: Broth microdilution MIC assay with meropenem, K. pneumoniae KPC-2 and VIM-4; format: cell-based; conditions: Fixed Mero (meropenem) 4 μg/mL; K. p. A-1797 KPC-2 VIM-4
Method in brief: as §1

SHV-5 = molecular target: T2, SHV-5 (Klebsiella pneumoniae, UniProt P0A3M1); assay: β-lactamase enzyme inhibition assay, SHV-5 (cefotaxime substrate); format: biochemical
T2 construct: made in house; host or cells: E. coli BL21(DE3)
Method in brief: (§2)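 Native untagged enzymes expressed in E. coli BL21(DE3), purified by cation exchange and gel filtration. Inhibitor preincubated with enzyme 15 min at 37 °C; hydrolysis followed by absorbance: imipenem at 300 nm for KPC-2, cefotaxime at 260 nm for SHV-5. IC50 as concentration halving initial hydrolysis rate versus inhibitor-free wells.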

KPC-2 = molecular target: T3, KPC-2 (Klebsiella pneumoniae, UniProt Q9F663); assay: β-lactamase enzyme inhibition assay, KPC-2 (imipenem substrate); format: biochemical
T3 construct: made in house; host or cells: E. coli BL21(DE3)
Method in brief: as §2

OXA-48 = OXA-48 (UniProt Q6XEC0); assay: β-lactamase enzyme inhibition assay, Class D oxacillinase; format: biochemical; conditions: read-out: OXA-48
AmpC = molecular target: T4, AmpC (Enterobacter cloacae, UniProt P05364); assay: β-lactamase enzyme inhibition assay, p99 AmpC (nitrocefin substrate); format: biochemical
T4 construct: made in house; host or cells: E. coli BL21(DE3)
Method in brief: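 Native untagged enzymes expressed in E. coli BL21(DE3), purified by cation exchange and gel filtration. Inhibitor preincubated with enzyme 15 min at 37 °C; hydrolysis followed by absorbance. IC50 as concentration halving initial hydrolysis rate versus inhibitor-free wells.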

[6] = test system: E. cloacae expressing the Class C P99; assay: Broth microdilution MIC assay with ceftazidime, E. cloacae P99; format: cell-based; conditions: Fixed CAZ (ceftazidime) 4 μg/mL; E. cl. 144200 p99 AmpC
Method in brief: as §1

[7] = Class B, nitrocefin substrate, 486 nm, read-out: VIM-2
[8] = Class A, imipenem substrate, 300 nm, read-out: KPC-2

T3 sequence (Q9F663 25-293, looked up): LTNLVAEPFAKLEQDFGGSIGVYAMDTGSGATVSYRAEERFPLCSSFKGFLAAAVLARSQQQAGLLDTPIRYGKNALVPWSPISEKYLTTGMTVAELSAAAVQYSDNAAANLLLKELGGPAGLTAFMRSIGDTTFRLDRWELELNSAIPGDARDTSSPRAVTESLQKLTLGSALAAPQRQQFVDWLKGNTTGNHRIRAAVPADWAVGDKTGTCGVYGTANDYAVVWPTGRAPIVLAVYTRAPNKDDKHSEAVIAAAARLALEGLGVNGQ
T2 sequence (P0A3M1 22-286): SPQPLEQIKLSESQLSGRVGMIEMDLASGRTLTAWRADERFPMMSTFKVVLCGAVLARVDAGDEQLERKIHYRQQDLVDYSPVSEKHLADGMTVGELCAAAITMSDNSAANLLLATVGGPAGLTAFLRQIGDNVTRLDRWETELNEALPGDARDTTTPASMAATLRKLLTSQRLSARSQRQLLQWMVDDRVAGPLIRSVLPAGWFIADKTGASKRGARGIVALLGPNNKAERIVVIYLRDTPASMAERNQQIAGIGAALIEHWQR
T4 sequence (P05364 21-381): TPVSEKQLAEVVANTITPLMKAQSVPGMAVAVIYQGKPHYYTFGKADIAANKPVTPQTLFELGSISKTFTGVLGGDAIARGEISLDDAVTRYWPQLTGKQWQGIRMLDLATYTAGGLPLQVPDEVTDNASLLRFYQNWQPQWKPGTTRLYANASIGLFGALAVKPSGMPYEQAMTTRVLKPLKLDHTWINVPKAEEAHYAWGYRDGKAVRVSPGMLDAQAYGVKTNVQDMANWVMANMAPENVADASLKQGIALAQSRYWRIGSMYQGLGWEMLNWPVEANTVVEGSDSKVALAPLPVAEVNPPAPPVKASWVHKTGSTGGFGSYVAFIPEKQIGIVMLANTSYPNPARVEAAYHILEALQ

SMILES | IC50 (VIM-2; [7]) | MIC (μg/mL) of Exemplary Compounds in presence of fixed β-lactams: P. aerug. 2775 VIM-2 [1] | MIC (μg/mL) of Exemplary Compounds in presence of fixed β-lactams: K. p. 11978 OXA-48 [2] | MIC (μg/mL) of Exemplary Compounds in presence of fixed β-lactams: E. coli ESBL4 CTX-M-15 [3] | MIC (μg/mL) of Exemplary Compounds in presence of fixed β-lactams: K. p. 156319 KPC-3 [4] | MIC (μg/mL) of Exemplary Compounds in presence of fixed β-lactams: K. p. A-1797 KPC-2 VIM-4 [5] | IC50 (SHV-5) | IC50 (KPC-2; [8]) | IC50 (OXA-48) | IC50 (AmpC) | MIC (μg/mL) of Exemplary Compounds in presence of fixed β-lactams: E. cl. 144200 p99 AmpC [6] | IC50 (VIM-2) | IC50 (KPC-2)
NCc1nnn(CC(=O)N[C@H]2Cc3cccc(C(=O)O)c3OB2O)c1-c1ccsc1 [Example 108, (R)-3-(2-(4-(aminomethyl)-5-(thiophen-3-yl)-1H-1,2,3-triazol-1-yl)acetamido)-2-hydroxy-3,4-dihydro-2H-benzo[e][1,2]oxaborinine-8-carboxylic acid] | < 100 nM | C (C represents an MIC of <1 μg/mL) | B (B represents an MIC between 1 and 16 μg/mL inclusive) | C (C represents an MIC of <1 μg/mL) | B (B represents an MIC between 1 and 16 μg/mL inclusive) | C (C represents an MIC of <1 μg/mL) | 100 to 1000 nM | < 100 nM | < 100 nM | < 100 nM | B (B represents an MIC between 1 and 16 μg/mL inclusive) | – | –
NCCCC[C@@H](C(=O)N[C@H]1Cc2cccc(C(=O)O)c2OB1O)n1cc(CN)nn1 [Example 113, (R)-3-((S)-6-amino-2-(4-(aminomethyl)-1H-1,2,3-triazol-1-yl)hexanamido)-2-hydroxy-3,4-dihydro-2H-benzo[e][1,2]oxaborinine-8-carboxylic acid] | < 100 nM | C (C represents an MIC of <1 μg/mL) | A (A represents an MIC>16 μg/mL) | C (C represents an MIC of <1 μg/mL) | B (B represents an MIC between 1 and 16 μg/mL inclusive) | C (C represents an MIC of <1 μg/mL) | 1000 to 10000 nM | 100 to 1000 nM | 100 to 1000 nM | < 100 nM | C (C represents an MIC of <1 μg/mL) | – | –
NCc1cn(C[C@H](N)C(=O)N[C@H]2Cc3cccc(C(=O)O)c3OB2O)nn1 [Example 114, (R)-3-((S)-2-amino-3-(4-(aminomethyl)-1H-1,2,3-triazol-1-yl)propanamido)-2-hydroxy-3,4-dihydro-2H-benzo[e][1,2]oxaborinine-8-carboxylic acid] | 1000 to 10000 nM | C (C represents an MIC of <1 μg/mL) | B (B represents an MIC between 1 and 16 μg/mL inclusive) | C (C represents an MIC of <1 μg/mL) | C (C represents an MIC of <1 μg/mL) | B (B represents an MIC between 1 and 16 μg/mL inclusive) | 10000 to 100000 nM | 100 to 1000 nM | 1000 to 10000 nM | < 100 nM | C (C represents an MIC of <1 μg/mL) | – | –
CSCC[C@@H](C(=O)N[C@H]1Cc2cccc(C(=O)O)c2OB1O)n1cc(CN)nn1 [Example 115, (R)-3-((S)-2-(4-(aminomethyl)-1H-1,2,3-triazol-1-yl)-4-(methylthio)butanamido)-2-hydroxy-3,4-dihydro-2H-benzo[e][1,2]oxaborinine-8-carboxylic acid] | 100 to 1000 nM | B (B represents an MIC between 1 and 16 μg/mL inclusive) | B (B represents an MIC between 1 and 16 μg/mL inclusive) | C (C represents an MIC of <1 μg/mL) | B (B represents an MIC between 1 and 16 μg/mL inclusive) | B (B represents an MIC between 1 and 16 μg/mL inclusive) | 100 to 1000 nM | 100 to 1000 nM | 1000 to 10000 nM | < 100 nM | C (C represents an MIC of <1 μg/mL) | – | –
NCCn1cnnc1CC(=O)N[C@H]1Cc2cccc(C(=O)O)c2OB1O [Example 117, (R)-3-(2-(4-(2-aminoethyl)-4H-1,2,4-triazol-3-yl)acetamido)-2-hydroxy-3,4-dihydro-2H-benzo[e][1,2]oxaborinine-8-carboxylic acid] | 100 to 1000 nM | C (C represents an MIC of <1 μg/mL) | B (B represents an MIC between 1 and 16 μg/mL inclusive) | C (C represents an MIC of <1 μg/mL) | C (C represents an MIC of <1 μg/mL) | B (B represents an MIC between 1 and 16 μg/mL inclusive) | < 100 nM | 100 to 1000 nM | 100 to 1000 nM | < 100 nM | C (C represents an MIC of <1 μg/mL) | – | –
NCCn1cnc(CC(=O)N[C@H]2Cc3cccc(C(=O)O)c3OB2O)n1 [Example 118, (R)-3-(2-(1-(2-aminoethyl)-1H-1,2,4-triazol-3-yl)acetamido)-2-hydroxy-3,4-dihydro-2H-benzo[e][1,2]oxaborinine-8-carboxylic acid] | 1000 to 10000 nM | C (C represents an MIC of <1 μg/mL) | B (B represents an MIC between 1 and 16 μg/mL inclusive) | C (C represents an MIC of <1 μg/mL) | C (C represents an MIC of <1 μg/mL) | B (B represents an MIC between 1 and 16 μg/mL inclusive) | 100 to 1000 nM | 100 to 1000 nM | 100 to 1000 nM | < 100 nM | C (C represents an MIC of <1 μg/mL) | – | –
NCCn1ncnc1CC(=O)N[C@H]1Cc2cccc(C(=O)O)c2OB1O [Example 119, (R)-3-(2-(1-(2-aminoethyl)-1H-1,2,4-triazol-5-yl)acetamido)-2-hydroxy-3,4-dihydro-2H-benzo[e][1,2]oxaborinine-8-carboxylic acid] | 100 to 1000 nM | C (C represents an MIC of <1 μg/mL) | B (B represents an MIC between 1 and 16 μg/mL inclusive) | C (C represents an MIC of <1 μg/mL) | C (C represents an MIC of <1 μg/mL) | B (B represents an MIC between 1 and 16 μg/mL inclusive) | < 100 nM | 100 to 1000 nM | 100 to 1000 nM | < 100 nM | C (C represents an MIC of <1 μg/mL) | – | –
NCCc1cnnn1CC(=O)N[C@H]1Cc2cccc(C(=O)O)c2OB1O [Example 121, (R)-3-(2-(5-(2-aminoethyl)-1H-1,2,3-triazol-1-yl)acetamido)-2-hydroxy-3,4-dihydro-2H-benzo[e][1,2]oxaborinine-8-carboxylic acid] | – | C (C represents an MIC of <1 μg/mL) | B (B represents an MIC between 1 and 16 μg/mL inclusive) | C (C represents an MIC of <1 μg/mL) | C (C represents an MIC of <1 μg/mL) | B (B represents an MIC between 1 and 16 μg/mL inclusive) | < 100 nM | – | < 100 nM | < 100 nM | C (C represents an MIC of <1 μg/mL) | 100 to 1000 nM | < 100 nM
